Like-named read-outs stand apart in the source and are kept apart here.
Legend:
[1] = Solubility Analyses (Example 1): dissolution in water; assay type: physicochemical
[2] = at 25° C., cited from earlier work

COc1ccc2[nH]cc(CCNC(C)=O)c2c1 [melatonin]
dissolution in water ([1]; melatonin 1.2% (w/w) in the absence of caffeine): did not completely dissolve | dissolution in water ([1]; melatonin 2% (w/w) in the absence of caffeine): did not dissolve completely | solubility in water [2]: approximately 0.01 g/100 mL | solubility in water ([2]; same value given in percent): approximately 0.01%
